Assay: Plasma escitalopram levels in Phase 1 study
Assay type: in vivo, human
Conditions: for Escitalopram plasma levels, Average Day 21-23 / concentration at 21 day / concentration at 22 day / concentration at 23 day: 20 mg/day oral; for Escitalopram plasma levels, Average Day 21-23 / concentration at 7 day / concentration at 21 day / concentration at 22 day / concentration at 23 day: mean ± SEM; for concentration at 7 day / concentration at 21 day / concentration at 22 day / concentration at 23 day: both sexes, human, plasma; for concentration at 7 day: 10 mg/day, after 10 mg/day oral
Description: Study Design. A Phase 1, randomized, double-blind, placebo-controlled, single ascending dose study was performed to evaluate the safety, tolerability and pharmacokinetics (PK) of 5-HTP solution for IV infusion when administered to healthy adults taking a selective serotonin reuptake inhibitor (SSRI), escitalopram, for 3 weeks. Study duration was 37±3 days. The total individual subject participation time was no more than 66 days including screening, dosing, and follow-up phases. The IV infusion duration was 24 h, dosing with 5-HTP solution for IV infusion (see Example 3, above) or placebo (0.9% saline).
Pre-treatment with escitalopram. All subjects received pretreatment with escitalopram for 3 weeks prior to and during the 24 h IV infusion. A supply of escitalopram was provided for self-administration at a dose of 10 mg/day for 7 days. On Day 7 subjects were evaluated for general health and tolerability of escitalopram. Escitalopram compliance confirmation was evaluated by taking a blood draw for escitalopram plasma level measurements and by monitoring pill count using a diary. On Day 7 the subjects received a supply of 20 mg escitalopram tablets and self-administered 20 mg/day until Day 20 when they were admitted to the impatient clinic. Escitalopram was co-administered orally on Day 21-23 by clinical staff. Escitalopram treatment was tapered from 20 mg/day to 10 mg/day after the end of the infusion and continued for 8 days.
Bioanalysis. Plasma samples for 5-HTP analysis were collected and stored at −80° C. Plasma samples for escitalopram analysis were collected and stored at −80° C. Plasma 5-HTP levels and plasma escitalopram levels were measured using standard liquid chromatography with tandem mass spectrometry (LC-MS-MS) methods. For 5-HTP analysis, plasma samples were collected at T=0, 1, 2, 3, 4, 5, 6, 8, 10, 12, 14, 22, 24, 26, 28, 30, 32, 36, and 48 hr. For escitalopram analysis, plasma samples were collected on Day 7, Day 21 (pre-infusion), Day 22 (end of infusion), and Day 23 (24 hr after end of infusion). Plasma escitalopram levels were averaged across days 21-23, during the time-period when subjects were admitted to the clinic and received 5-HTP solution for IV infusion or placebo.
PK analysis of plasma escitalopram. Plasma escitalopram levels across Days 21-23 were averaged for each subject, and statistical analysis by one-way ANOVA for cohort differences executed using GraphPad Prism version 9.4.1.

[1] = oral, Cohort 1 (5-HTP 1 mg/kg, Constant)
[2] = oral, Cohort 2 (5-HTP 3 mg/kg, Constant)
[3] = oral, Cohort 3 (5-HTP 3 mg/kg, Ramped)
[4] = oral, 20 mg/day, Cohort 4 (5-HTP 2 mg/kg, Ramped)
[5] = oral, 20 mg/day, Cohort 5 (5-HTP 1 mg/kg, Ramped)
[6] = po, 20 mg/day, Cohorts 1-5 pooled, placebo infusion instead of 5-HTP, N=10

With `CN(C)CCC[C@@]1(c2ccc(F)cc2)OCc2cc(C#N)ccc21` [Escitalopram, escitalopram] the “Escitalopram plasma levels, Average Day 21-23” value (shortened to “Escitalopram plasma levels”) (Cohort 1 (5-HTP 1 mg/kg, Constant)) was 39.7 ± 8.9 ng/mL, the “Escitalopram plasma levels” value (Cohort 2 (5-HTP 3 mg/kg, Constant)) was 25.6 ± 6.5 ng/mL and the “Escitalopram plasma levels” value (Cohort 3 (5-HTP 3 mg/kg, Ramped)) was 39.1 ± 4.8 ng/mL. For the same compound, the “Escitalopram plasma levels” value (Cohort 4 (5-HTP 2 mg/kg, Ramped)) was 29.2 ± 6.2 ng/mL, the “Escitalopram plasma levels” value (Cohort 5 (5-HTP 1 mg/kg, Ramped)) was 24.4 ± 5.0 ng/mL and the “Escitalopram plasma levels” value (Cohorts 1-5 pooled, placebo infusion instead of 5-HTP, N=10) was 44.0 ± 8.2 ng/mL. The “average plasma escitalopram levels, range across treatment groups” value (Days 21-23, 20 mg/day oral) was 24 to 44 ng/mL, the concentration at 7 day [1] was 19.3 ± 3.1 ng/mL and the concentration at 7 day [2] was 10.1 ± 1.5 ng/mL. The concentration at 7 day [3] was 17 ± 2.3 ng/mL, the concentration at 7 day (oral, Cohort 4 (5-HTP 2 mg/kg, Ramped)) was 14.2 ± 2.5 ng/mL and the concentration at 7 day (oral, Cohort 5 (5-HTP 1 mg/kg, Ramped)) was 11.4 ± 2.3 ng/mL. For the same compound, the concentration at 21 day (oral, 20 mg/day, Cohort 1 (5-HTP 1 mg/kg, Constant)) was 39.8 ± 12.3 ng/mL, the concentration at 21 day (oral, 20 mg/day, Cohort 2 (5-HTP 3 mg/kg, Constant)) was 22.5 ± 10.2 ng/mL and the concentration at 21 day (oral, 20 mg/day, Cohort 3 (5-HTP 3 mg/kg, Ramped)) was 43.5 ± 4.5 ng/mL. The concentration at 21 day [4] was 28.5 ± 5.8 ng/mL, the concentration at 22 day [4] was 28.8 ± 6.2 ng/mL and the concentration at 23 day [4] was 30.3 ± 7 ng/mL. The concentration at 21 day [5] was 21.7 ± 3.4 ng/mL, the concentration at 22 day [5] was 22.2 ± 4.7 ng/mL and the concentration at 23 day [5] was 29.2 ± 7.5 ng/mL. For the same compound, the concentration at 22 day [1] was 37.9 ± 7.3 ng/mL, the concentration at 23 day [1] was 41.6 ± 7.6 ng/mL and the concentration at 22 day [2] was 24.3 ± 5.7 ng/mL. The concentration at 23 day [2] was 30 ± 3.7 ng/mL, the concentration at 22 day [3] was 37.3 ± 5.9 ng/mL and the concentration at 23 day [3] was 36.6 ± 4.1 ng/mL. For the same compound, the concentration at 7 day (po, Cohorts 1-5 pooled, placebo infusion instead of 5-HTP, N=10) was 18.3 ± 3.1 ng/mL, the concentration at 21 day [6] was 43.3 ± 8.4 ng/mL and the concentration at 22 day [6] was 45.2 ± 9.1 ng/mL. It also gave a concentration at 23 day [6] of 43.5 ± 7.5 ng/mL.

Reference: patent US11779567B2, “Method for optimizing 5-hydroxytryptamine function in the brain for therapeutic purposes” (Evecxia Therapeutics, Inc., priority 2021, dated 2023)
